Results from ChEMBL document CHEMBL1148633, “Inhibition of carbonic anhydrase-II by sulfamate and sulfamide groups: an investigation involving direct thermodynamic binding measurements” (J Med Chem, 2006).

Experiments:
Carbonic anhydrase 2 [1] = molecular target: T1, Carbonic anhydrase 2 (Homo sapiens, UniProt P00918); assay: Binding affinity to human CA2 in presence of sodium sulfate and ANS at pH 7.5 by ThermoFluor assay
Carbonic anhydrase 2 [2] = molecular target: T1, Carbonic anhydrase 2; assay: Inhibition of human CA2 by 4-nitrophenyl acetate hydrolysis
Carbonic anhydrase 2 [3] = molecular target: T1, Carbonic anhydrase 2; assay: Binding affinity to human CA2 at pH 7.4 by ThermoFluor assay
Carbonic anhydrase 2 [4] = molecular target: T1, Carbonic anhydrase 2
Description: Inhibition of human CA2 by carbon dioxide hydration

Kd (Carbonic anhydrase 2 [1]) [nM] | Ki (Carbonic anhydrase 2 [2]) [nM] | Kd (Carbonic anhydrase 2 [3]) [nM] | Ki (Carbonic anhydrase 2 [4]) [nM] | Structure (SMILES)
1000 | 1740 | 1500 | 892 | NS(=O)(=O)Nc1ccc([N+](=O)[O-])cc1
2650 | 18800 | 5000 | 14400 | COc1ccc(NS(N)(=O)=O)cc1
